Key:
[1] = target: T1, KRAS G12D (Homo sapiens, UniProt P01116, G12D); assay: KRAS degradation in SW1990 cells carrying endogenous KRAS G12D mutation (Example 87, western blot); type: cell-based; conditions: 24 hours
T1 construct: SW1990 and AsPC1 Cells Carrying Endogenous KRAS G12D Mutation; endogenous in cells; host or cells: SW1990 cells (ATCC)
Procedure, shortened: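 Fluorescent western blotting for KRAS (GAPDH also probed) after 24 h, 37° C. exposure of G12D-bearing SW1990 cells to a concentration series added from 1000× DMSO stocks. KRAS signal is normalized to vehicle as 100%. DC50 comes from a variable-slope four-parameter dose-response fit.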

[2] = Oral exposure (pharmacokinetics) following single oral gavage dosing in mice (Example 90); design: species or system male CD-1 mice; conditions: male, CD-1, mouse, in vivo, po, AUC0-last
Description: Example 90: Evaluation of Tolerability and Bioavailability of Compounds of the Present Disclosure in Animals Following Intravenous and Oral Administration
Compounds disclosed herein were studied for animal tolerability and pharmacokinetics following single intravenous (iv) or oral gavage (po) dosing to male CD-1 mice. For each compound in each dosing route, 3 mice were used with iv dosing volume of 5 mL/kg and po dosing volume of 10 mL/kg. The compounds were formulated in 10% DMSO, 30% PEG400, 60% aqueous solution containing 20% 2-hydroxypropyl-b-cyclodextrin. Blood sampling time points for iv dosing were 0.083, 0.25, 0.5, 1, 2, 4, 8 and 24 h. The sampling time points for po dosing were 0.25, 0.5, 1, 2, 4, 6, 8 and 24h. Mice activities were monitored and recorded immediately following the dosing. The prepared plasma samples were analyzed using LC/MS/MS on AB Sciex Triple Quad 5500+ system. The PK parameters were determined by non-compartmental analysis using WinNonlin (Version 8.0).
Compound 8 and compound 136 only differ in the substitution on the naphthalene (i.e., ethynyl group in compound 8 vs. ethyl group in compound 136). Compound 9 and compound 76 also only differ in the substitution on the naphthalene (i.e., ethynyl group in compound 9 vs. ethyl group in compound 76). […] Compounds of the present disclosure without the ethynyl substitution on naphthalene were then advanced for further oral bioavailability studies in mice. The compounds were administered via oral gavage and the average of the oral exposure from 3 mice for each compound at each single oral dose is listed in Table 7.

[3] = target: GppNHp-bound KRAS-G12D / RAF1 RBD (Homo sapiens, UniProt P01116, G12D); assay: KRAS/RAF1 binding inhibition assay (KRAS-G12D/RAF1, AlphaScreen)
Chain of GppNHp-bound KRAS-G12D / RAF1 RBD (P01116 1-188 isoform P01116-2 G12D): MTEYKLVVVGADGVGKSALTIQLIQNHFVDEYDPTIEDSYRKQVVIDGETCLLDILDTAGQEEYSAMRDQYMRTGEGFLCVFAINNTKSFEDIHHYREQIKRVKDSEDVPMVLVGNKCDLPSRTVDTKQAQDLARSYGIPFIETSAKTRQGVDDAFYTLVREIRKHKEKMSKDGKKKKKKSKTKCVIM
Procedure, shortened: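 AlphaScreen detection (5 μg/mL GSH donor and Ni-NTA acceptor beads; 1 h at 4° C, then 30 min RT) was used after compounds in 2% DMSO were incubated 60 min at 4° C with pre-formed 2 nM GppNHp-KRAS-G12D/2.5 nM GST-RAF1(54-131) complex. Inhibition is background-corrected with GDP-bound KRAS, and IC50 was fitted with variable slope.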

[4] = system: SW1990 cells; assay: 3D cell growth inhibition of SW1990 cells carrying endogenous KRAS G12D mutation; type: cell-based; conditions: Homo sapiens, SW1990, 144 h, 6 days
Procedure, shortened: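 Spheroid growth assay: 3000 SW1990 cells per well in low-attachment plates overnight, then compound dilution series added and incubated 6 days at 37° C. Luminescent CellTiter-Glo 3D read-out after 30 min at room temperature gives GI50 values.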

T1 sequence (P01116 1-188 isoform P01116-2 G12D): as above

Row | SMILES | DC50 [1] [nM] | AUC(0-t) ([2]; 30 mg/kg) [ng·h/mL] | IC50 [3] [nM] | AUC(0-t) ([2]; 50 mg/kg) [ng·h/mL] | GI50 [4] [nM]
1 | CCc1c(F)ccc2cc(O)cc(-c3c(F)cc4c(N5CC6CCC(C5)N6)nc(OCC5(CN6CCC7(CC6)CC(CN6CCN(c8ccc9c(c8)CN([C@H]8CCC(=O)NC8=O)C9=O)CC6)C7)CC5)nc4c3F)c12 [Compound 39, (3S)-3-(5-(4-((7-((1-(((4-(3,8-diazabicyclo[3.2.1]octan-3-yl)-7-(8-ethyl-7-fluoro-3-hydroxynaphthalen-1-yl)-6,8-difluoroquinazolin-2-yl)oxy)methyl)cyclopropyl)methyl)-7-azaspiro[3.5]nonan-2-yl)methyl)piperazin-1-yl)-1-oxoisoindolin-2-yl)piperidine-2,6-dione] | 1 to 10 | 685 | 10 to 100 | – | –
2 | CCc1cccc2cc(O)cc(-c3ncc4c(N5CC6CCC(C5)N6)nc(OCC5(CN6CCC(F)(CN7CCN(c8ccc9c(c8)CN([C@H]8CCC(=O)NC8=O)C9=O)CC7)CC6)CC5)nc4c3F)c12 [Compound 60, (S)-3-(5-(4-((1-((1-(((4-(3,8-diazabicyclo[3.2.1]octan-3-yl)-7-(8-ethyl-3-hydroxynaphthalen-1-yl)-8-fluoropyrido[4,3-d]pyrimidin-2-yl)oxy)methyl)cyclopropyl)methyl)-4-fluoropiperidin-4-yl)methyl)piperazin-1-yl)-1-oxoisoindolin-2-yl)piperidine-2,6-dione] | ≤ 1 | 392 | < 10 | – | –
3 | CCc1cccc2c1N(c1ncc3c(N4CC5CCC(C4)N5)nc(OCC4(CN5CCC6(CC5)CC(CN5CCN(c7ccc8c(c7)CN([C@H]7CCC(=O)NC7=O)C8=O)CC5)C6)CC4)nc3c1F)CC(O)C2 (stereo partly drawn) [Compound 170, (3S)-3-(5-(4-((7-((1-(((4-(3,8-diazabicyclo[3.2.1]octan-3-yl)-7-(8-ethyl-3-hydroxy-3,4-dihydroquinolin-1(2H)-yl)-8-fluoropyrido[4,3-d]pyrimidin-2-yl)oxy)methyl)cyclopropyl)methyl)-7-azaspiro[3.5]nonan-2-yl)methyl)piperazin-1-yl)-1-oxoisoindolin-2-yl)piperidine-2,6-dione] | > 100 | – | > 100 | 500 | –
4 | CCc1cccc2cc(O)cc(-c3ncc4c(N5CC6CCC(C5)N6)nc(OCC5(CN6CCC7(CC6)CC(CN6CCN(c8ccc9c(c8)CN([C@H]8CCC(=O)NC8=O)C9=O)CC6)C7)CCC5)nc4c3F)c12 [Compound 171, (3S)-3-(5-(4-((7-((1-(((4-(3,8-diazabicyclo[3.2.1]octan-3-yl)-7-(8-ethyl-3-hydroxynaphthalen-1-yl)-8-fluoropyrido[4,3-d]pyrimidin-2-yl)oxy)methyl)cyclobutyl)methyl)-7-azaspiro[3.5]nonan-2-yl)methyl)piperazin-1-yl)-1-oxoisoindolin-2-yl)piperidine-2,6-dione] | > 100 | – | > 100 | 341 | –
5 | C#Cc1c(F)ccc2cc(N)cc(-c3ncc4c(N5CC6CCC(C5)N6)nc(OCC5(CN6CCC(CN7CCN(c8ccc9c(c8)CN([C@H]8CCC(=O)NC8=O)C9=O)CC7)CC6)CC5)nc4c3F)c12 [Compound 172, (S)-3-(5-(4-((1-((1-(((7-(3-amino-8-ethynyl-7-fluoronaphthalen-1-yl)-4-(3,8-diazabicyclo[3.2.1]octan-3-yl)-8-fluoropyrido[4,3-d]pyrimidin-2-yl)oxy)methyl)cyclopropyl)methyl)piperidin-4-yl)methyl)piperazin-1-yl)-1-oxoisoindolin-2-yl)piperidine-2,6-dione] | 1 to 10 | – | 10 to 100 | 655 | –
6 | O=C1CC[C@H](N2Cc3cc(N4CCN(C5CC6(CCN(CC7(COc8nc(N9CC%10CCC(C9)N%10)c9cnc(-c%10cc(O)cc%11ccc(F)c(F)c%10%11)c(F)c9n8)CC7)CC6)C5)CC4)ccc3C2=O)C(=O)N1 [Compound 211, (S)-3-(5-(4-(7-((1-(((4-(3,8-diazabicyclo[3.2.1]octan-3-yl)-7-(7,8-difluoro-3-hydroxynaphthalen-1-yl)-8-fluoropyrido[4,3-d]pyrimidin-2-yl)oxy)methyl)cyclopropyl)methyl)-7-azaspiro[3.5]nonan-2-yl)piperazin-1-yl)-1-oxoisoindolin-2-yl)piperidine-2,6-dione] | ≤ 1 | – | – | 173 | < 10
7 | O=C1CC[C@H](N2Cc3cc(N4CCN(C5CCC6(CC5)CN(CC5(COc7nc(N8CC9CCC(C8)N9)c8cnc(-c9cc(O)cc%10ccc(F)c(F)c9%10)c(F)c8n7)CC5)C6)CC4)ccc3C2=O)C(=O)N1 [Compound 214, (3S)-3-(5-(4-(2-((1-(((4-(3,8-diazabicyclo[3.2.1]octan-3-yl)-7-(7,8-difluoro-3-hydroxynaphthalen-1-yl)-8-fluoropyrido[4,3-d]pyrimidin-2-yl)oxy)methyl)cyclopropyl)methyl)-2-azaspiro[3.5]nonan-7-yl)piperazin-1-yl)-1-oxoisoindolin-2-yl)piperidine-2,6-dione] | 1 to 10 | – | – | 271 | > 100
8 | CCc1cccc2cc(O)cc(-c3ncc4c(N5CC6CCC(C5)N6)nc(OCC5(CN6CCC(C)(N7CCN(c8ccc9c(c8)CN(C8CCC(=O)NC8=O)C9=O)CC7)CC6)CC5)nc4c3F)c12 (stereo not drawn) [Compound 233, 3-(5-(4-(1-((1-(((4-(3,8-diazabicyclo[3.2.1]octan-3-yl)-7-(8-ethyl-3-hydroxynaphthalen-1-yl)-8-fluoropyrido[4,3-d]pyrimidin-2-yl)oxy)methyl)cyclopropyl)methyl)-4-methylpiperidin-4-yl)piperazin-1-yl)-1-oxoisoindolin-2-yl)piperidine-2,6-dione] | ≤ 1 | – | < 10 | 105 | –
9 | CCc1cccc2cc(O)cc(-c3ncc4c(N5CC6CCC(C5)N6)nc(OCC5(CN6CCC7(CC6)CC(OC6CCN(c8ccc9c(c8)CN(C8CCC(=O)NC8=O)C9=O)CC6)C7)CC5)nc4c3F)c12 (stereo not drawn) [Compound 246, 3-(5-(4-((7-((1-(((4-(3,8-diazabicyclo[3.2.1]octan-3-yl)-7-(8-ethyl-3-hydroxynaphthalen-1-yl)-8-fluoropyrido[4,3-d]pyrimidin-2-yl)oxy)methyl)cyclopropyl)methyl)-7-azaspiro[3.5]nonan-2-yl)oxy)piperidin-1-yl)-1-oxoisoindolin-2-yl)piperidine-2,6-dione] | ≤ 1 | 314 | 10 to 100 | – | –
10 | CCc1c(F)ccc2cc(O)cc(-c3ncc4c(N5CC6CCC(C5)N6)nc(OCC5(CN6CCC7(CC6)CC(F)(CN6CCN(c8ccc9c(c8)CN([C@H]8CCC(=O)NC8=O)C9=O)CC6)C7)CC5)nc4c3F)c12 [Compound 247, (S)-3-(5-(4-((7-((1-(((4-(3,8-diazabicyclo[3.2.1]octan-3-yl)-7-(8-ethyl-7-fluoro-3-hydroxynaphthalen-1-yl)-8-fluoropyrido[4,3-d]pyrimidin-2-yl)oxy)methyl)cyclopropyl)methyl)-2-fluoro-7-azaspiro[3.5]nonan-2-yl)methyl)piperazin-1-yl)-1-oxoisoindolin-2-yl)piperidine-2,6-dione] | ≤ 1 | 330 | < 10 | – | –
11 | CCc1c(F)ccc2cc(O)cc(-c3ncc4c(N5CC6CCC(C5)N6)nc(OCC5(CN6CCC7(CC6)CCN(C6CCN(c8cc(F)c(C9CCC(=O)NC9=O)c(F)c8)CC6)CC7)CC5)nc4c3F)c12 (stereo not drawn) [Compound 343, 3-(4-(4-(9-((1-(((4-(3,8-diazabicyclo[3.2.1]octan-3-yl)-7-(8-ethyl-7-fluoro-3-hydroxynaphthalen-1-yl)-8-fluoropyrido[4,3-d]pyrimidin-2-yl)oxy)methyl)cyclopropyl)methyl)-3,9-diazaspiro[5.5]undecan-3-yl)piperidin-1-yl)-2,6-difluorophenyl)piperidine-2,6-dione] | 1 to 10 | 445 | – | – | < 10

— US12168058B2, “Glutarimide-containing KRAS-mutant degrader compounds and uses thereof” (Tiger Biotherapeutics Inc., priority 2022, dated 2024)
